Ki data for 23 molecules are collected here from patent US10392391B2 (Vertex Pharmaceuticals Incorporated, priority 2012, dated 2019).

SMILES strings stand for the structures.

The first experiment deals with ATR kinase (full-length ATR) (Homo sapiens (Human), UniProt Q13535). Description: ATR inhibition assay (radioactive-phosphate incorporation). The experiment is classed as biochemical.
Sequence of ATR kinase (full-length ATR) (Q13535 whole entry): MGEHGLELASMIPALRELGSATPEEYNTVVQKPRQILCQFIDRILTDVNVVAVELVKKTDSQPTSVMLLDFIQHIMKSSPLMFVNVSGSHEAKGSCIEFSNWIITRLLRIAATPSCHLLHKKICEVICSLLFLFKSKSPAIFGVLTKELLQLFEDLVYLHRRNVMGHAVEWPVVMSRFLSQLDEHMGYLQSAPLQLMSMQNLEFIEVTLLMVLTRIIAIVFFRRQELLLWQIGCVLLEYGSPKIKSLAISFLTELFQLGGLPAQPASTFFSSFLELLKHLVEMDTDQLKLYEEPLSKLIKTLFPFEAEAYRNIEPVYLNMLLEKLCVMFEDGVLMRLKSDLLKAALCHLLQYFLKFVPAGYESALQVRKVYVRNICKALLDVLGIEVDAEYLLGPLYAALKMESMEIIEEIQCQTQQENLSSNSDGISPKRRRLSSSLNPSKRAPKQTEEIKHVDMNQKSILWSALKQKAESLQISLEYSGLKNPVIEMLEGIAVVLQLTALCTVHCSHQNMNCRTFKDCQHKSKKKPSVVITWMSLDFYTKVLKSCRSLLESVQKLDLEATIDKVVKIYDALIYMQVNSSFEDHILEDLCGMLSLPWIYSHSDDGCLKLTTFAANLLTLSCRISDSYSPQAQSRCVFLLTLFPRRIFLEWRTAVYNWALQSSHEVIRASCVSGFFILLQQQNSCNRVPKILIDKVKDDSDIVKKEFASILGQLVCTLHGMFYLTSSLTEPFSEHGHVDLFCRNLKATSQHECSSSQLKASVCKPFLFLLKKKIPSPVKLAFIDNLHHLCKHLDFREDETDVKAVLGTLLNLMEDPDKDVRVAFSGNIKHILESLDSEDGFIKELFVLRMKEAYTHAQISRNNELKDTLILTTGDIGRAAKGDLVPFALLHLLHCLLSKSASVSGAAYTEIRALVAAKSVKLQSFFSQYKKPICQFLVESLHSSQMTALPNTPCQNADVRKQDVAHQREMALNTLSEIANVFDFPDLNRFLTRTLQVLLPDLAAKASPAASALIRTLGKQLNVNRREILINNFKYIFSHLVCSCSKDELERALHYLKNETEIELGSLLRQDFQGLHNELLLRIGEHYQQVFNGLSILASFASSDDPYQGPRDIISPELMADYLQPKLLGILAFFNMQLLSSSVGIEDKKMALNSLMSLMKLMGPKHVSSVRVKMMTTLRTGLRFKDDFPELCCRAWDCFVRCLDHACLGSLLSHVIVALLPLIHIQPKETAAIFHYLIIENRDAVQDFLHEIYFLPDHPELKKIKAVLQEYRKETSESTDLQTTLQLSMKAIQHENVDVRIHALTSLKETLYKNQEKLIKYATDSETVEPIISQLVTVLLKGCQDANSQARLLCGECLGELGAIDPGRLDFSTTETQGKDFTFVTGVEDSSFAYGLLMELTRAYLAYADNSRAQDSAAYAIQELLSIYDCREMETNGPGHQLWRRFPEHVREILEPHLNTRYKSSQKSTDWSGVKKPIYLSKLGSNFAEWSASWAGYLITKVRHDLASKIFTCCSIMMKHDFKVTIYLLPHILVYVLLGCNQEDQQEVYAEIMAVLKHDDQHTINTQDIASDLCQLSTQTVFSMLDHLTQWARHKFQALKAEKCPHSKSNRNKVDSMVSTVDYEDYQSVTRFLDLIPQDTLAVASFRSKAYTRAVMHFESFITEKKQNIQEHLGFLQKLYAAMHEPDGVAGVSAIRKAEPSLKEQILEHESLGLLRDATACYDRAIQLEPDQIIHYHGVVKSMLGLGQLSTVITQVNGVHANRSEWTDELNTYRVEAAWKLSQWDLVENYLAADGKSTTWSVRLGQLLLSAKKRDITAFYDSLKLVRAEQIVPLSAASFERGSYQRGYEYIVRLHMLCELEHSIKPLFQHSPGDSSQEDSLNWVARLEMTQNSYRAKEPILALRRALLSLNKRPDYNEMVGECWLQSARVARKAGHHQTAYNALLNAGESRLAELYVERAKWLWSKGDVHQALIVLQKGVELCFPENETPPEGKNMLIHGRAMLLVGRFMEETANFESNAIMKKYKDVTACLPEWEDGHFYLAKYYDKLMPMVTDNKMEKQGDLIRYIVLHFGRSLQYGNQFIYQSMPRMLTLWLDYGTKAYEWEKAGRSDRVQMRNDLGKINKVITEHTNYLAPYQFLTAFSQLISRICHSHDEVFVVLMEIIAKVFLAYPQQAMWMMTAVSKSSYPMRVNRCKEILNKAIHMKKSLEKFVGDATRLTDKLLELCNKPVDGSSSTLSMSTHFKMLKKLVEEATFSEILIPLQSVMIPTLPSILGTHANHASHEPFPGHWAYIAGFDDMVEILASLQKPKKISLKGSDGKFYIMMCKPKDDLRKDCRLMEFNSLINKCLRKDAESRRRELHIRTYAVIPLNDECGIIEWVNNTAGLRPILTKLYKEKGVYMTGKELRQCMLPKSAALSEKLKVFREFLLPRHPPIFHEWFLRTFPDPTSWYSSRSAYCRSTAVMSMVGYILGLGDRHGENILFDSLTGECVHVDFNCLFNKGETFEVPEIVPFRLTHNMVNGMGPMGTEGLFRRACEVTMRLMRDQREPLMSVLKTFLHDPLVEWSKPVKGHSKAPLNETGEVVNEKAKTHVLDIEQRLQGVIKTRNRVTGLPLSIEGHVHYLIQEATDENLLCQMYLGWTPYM
Details: not given
Put shortly: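 Ki(app) was fitted by non-linear regression to background-corrected initial rates. Full-length ATR (5 nM) phosphorylated 800 μM peptide using 10 μM [γ-33P]ATP at 25° C in Tris/HCl pH 7.5 buffer with MgCl2, DTT and 7% DMSO. After 10-minute compound pre-incubation and 24-hour reaction, phosphocellulose filters were scintillation counted.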
As for `CN1CC[C@@H](OC2CCN(c3c(F)cncc3NC(=O)c3c(N)nn4cc(F)cnc34)CC2)C1` [I-N-132, (R)-2-amino-6-fluoro-N-(5-fluoro-4-(4-((1-methylpyrrolidin-3-yl)oxy)piperidin-1-yl)pyridin-3-yl)pyrazolo[1,5-a]pyrimidine-3-carboxamide], the Ki was in the range of 0.01 to 1 µM. On the same count and under the same terms, the value for `CN1CCN(c2c(F)cncc2NC(=O)c2c(N)nn3cc(C(C)(C)C#N)cnc23)CC1` [I-N-138, 2-amino-6-(2-cyanopropan-2-yl)-N-(5-fluoro-4-(4-methylpiperazin-1-yl)pyridin-3-yl)pyrazolo[1,5-a]pyrimidine-3-carboxamide] was 1 to 5 µM. The same measure, in the same setting: the value for `Nc1nn2cc(F)cnc2c1C(=O)Nc1cnccc1N1CCN(C2COC2)C2CC21` (centres unmarked) [I-N-112, 2-amino-6-fluoro-N-(4-(5-(oxetan-3-yl)-2,5-diazabicyclo[4.1.0]heptan-2-yl)pyridin-3-yl)pyrazolo[1,5-a]pyrimidine-3-carboxamide] was 1 to 5 µM.

The same experiment, now with this note: Ki(app), 5 nM full-length ATR, 10 μM ATP, 25° C.
Regarding `CN1CCC(S(=O)(=O)N2CCN(c3c(F)cncc3NC(=O)c3c(N)nn4cc(F)cnc34)CC2)CC1` [I-N-175, 2-amino-6-fluoro-N-(5-fluoro-4-(4-((1-methylpiperidin-4-yl)sulfonyl)piperazin-1-yl)pyridin-3-yl)pyrazolo[1,5-a]pyrimidine-3-carboxamide], the Ki lay in the range of 0.01 to 1 µM. With `CCOc1ccncc1NC(=O)c1c(N)nn2cc(CC#N)cnc12` [I-O-28, 2-amino-6-(cyanomethyl)-N-(4-ethoxypyridin-3-yl)pyrazolo[1,5-a]pyrimidine-3-carboxamide], the Ki is less than 0.01 µM.

Turning to `Nc1nn2cc(Cl)cnc2c1C(=O)Nc1cncc(F)c1N1CCN(C2COC2)CC1` [I-N-117, 2-amino-6-chloro-N-(5-fluoro-4-(4-(oxetan-3-yl)piperazin-1-yl)pyridin-3-yl)pyrazolo[1,5-a]pyrimidine-3-carboxamide], the Ki fell in the range of 0.01 to 1 µM.

On to `N#CCc1cnc2c(C(=O)Nc3cnccc3OC3CCCOC3)c(N)nn2c1` (centres unmarked) [I-O-41, 2-amino-6-(cyanomethyl)-N-(4-((tetrahydro-2H-pyran-3-yl)oxy)pyridin-3-yl)pyrazolo[1,5-a]pyrimidine-3-carboxamide], for which the Ki was less than 0.01 µM. Same read-out and setting: then `C[C@@H]1CN(C2COC2)CCN1c1ccncc1NC(=O)c1c(N)nn2cc(F)cnc12` [I-N-23, (R)-2-amino-6-fluoro-N-(4-(2-methyl-4-(oxetan-3-yl)piperazin-1-yl)pyridin-3-yl)pyrazolo[1,5-a]pyrimidine-3-carboxamide], with 0.01 to 1 µM; and `CN1CC(N2CCN(C(=O)C3CCN(c4c(F)cncc4NC(=O)c4c(N)nn5cc(F)cnc45)CC3)CC2)C1` [I-G-96, 2-amino-6-fluoro-N-(5-fluoro-4-(4-(4-(1-methylazetidin-3-yl)piperazine-1-carbonyl)piperidin-1-yl)pyridin-3-yl)pyrazolo[1,5-a]pyrimidine-3-carboxamide], with 0.01 to 1 µM; and `Nc1nn2cc(F)cnc2c1C(=O)Nc1cncc(F)c1N1CCN2CCOC[C@@H]2C1` [I-N-137, (S)-2-amino-6-fluoro-N-(5-fluoro-4-(hexahydropyrazino[2,1-c][1,4]oxazin-8(1H)-yl)pyridin-3-yl)pyrazolo[1,5-a]pyrimidine-3-carboxamide], with 0.01 to 1 µM. For `Nc1nn2cc(Cl)cnc2c1C(=O)Nc1cnccc1C1CCN(C2COC2)CC1` [I-C-11, 2-amino-6-chloro-N-(4-(1-(oxetan-3-yl)piperidin-4-yl)pyridin-3-yl)pyrazolo[1,5-a]pyrimidine-3-carboxamide], the Ki was in the range of 0.01 to 1 µM.

Consider `Nc1nn2cc(F)cnc2c1C(=O)Nc1cnccc1N1CCN(C2CCOC2)CC1` (racemic) [I-N-19, (R,S)-2-amino-6-fluoro-N-(4-(4-(tetrahydrofuran-3-yl)piperazin-1-yl)pyridin-3-yl)pyrazolo[1,5-a]pyrimidine-3-carboxamide], for which the Ki was in the range of 0.01 to 1 µM. Turning to `CC1(O)CN(C(=O)C2CCN(c3c(F)cncc3NC(=O)c3c(N)nn4cc(F)cnc34)CC2)C1` [I-G-63, 2-amino-6-fluoro-N-(5-fluoro-4-(4-(3-hydroxy-3-methylazetidine-1-carbonyl)piperidin-1-yl)pyridin-3-yl)pyrazolo[1,5-a]pyrimidine-3-carboxamide], the Ki fell in the range of 0.01 to 1 µM. Regarding `Nc1nn2cc(F)cnc2c1C(=O)Nc1cncc(F)c1N1CCC(n2ccnc2)CC1` [I-N-288, N-(4-(4-(1H-imidazol-1-yl)piperidin-1-yl)-5-fluoropyridin-3-yl)-2-amino-6-fluoropyrazolo[1,5-a]pyrimidine-3-carboxamide], the Ki lay within 0.01 to 1 µM. For the molecule `CN1CCN(c2c(Cl)cncc2NC(=O)c2c(N)nn3cc(F)cnc23)CC1` [I-N-85, 2-amino-N-(5-chloro-4-(4-methylpiperazin-1-yl)pyridin-3-yl)-6-fluoropyrazolo[1,5-a]pyrimidine-3-carboxamide], the Ki lay in the range of 0.01 to 1 µM. For the molecule `CC1(N2CCN(c3ccncc3NC(=O)c3c(N)nn4cc(F)cnc34)CC2)COC1` [I-N-62, 2-amino-6-fluoro-N-(4-(4-(3-methyloxetan-3-yl)piperazin-1-yl)pyridin-3-yl)pyrazolo[1,5-a]pyrimidine-3-carboxamide], the Ki lay in the range of 0.01 to 1 µM. Turning to `CS(=O)(=O)C1CCN(c2c(Cl)cncc2NC(=O)c2c(N)nn3cc(F)cnc23)C1` (centres unmarked) [I-N-287, 2-amino-N-(5-chloro-4-(3-(methylsulfonyl)pyrrolidin-1-yl)pyridin-3-yl)-6-fluoropyrazolo[1,5-a]pyrimidine-3-carboxamide], the Ki lay within 0.01 to 1 µM.

`Cc1nc(N2CCN(C)CC2)ccc1-c1ccncc1NC(=O)c1c(N)nn2cc(F)cnc12` [I-C-40, 2-amino-6-fluoro-N-(2-methyl-6-(4-methylpiperazin-1-yl)-[3,4′-bipyridin]-3′-yl)pyrazolo[1,5-a]pyrimidine-3-carboxamide]: the Ki is 0.01 to 1 µM. With `CC(=O)N1CC2(CCN(c3ccncc3NC(=O)c3c(N)nn4cc(F)cnc34)CC2)C1` [I-N-251, N-(4-(2-acetyl-2,7-diazaspiro[3.5]nonan-7-yl)pyridin-3-yl)-2-amino-6-fluoropyrazolo[1,5-a]pyrimidine-3-carboxamide], the Ki was 0.01 to 1 µM. On to `Nc1nn2cc(F)cnc2c1C(=O)Nc1cncc(F)c1N1CCN(C(=O)C2CN3CCC2CC3)CC1` (centres unmarked) [I-N-130, 2-amino-6-fluoro-N-(5-fluoro-4-(4-(quinuclidine-3-carbonyl)piperazin-1-yl)pyridin-3-yl)pyrazolo[1,5-a]pyrimidine-3-carboxamide], for which the Ki fell in the range of 0.01 to 1 µM. Same read-out and setting: the value for `Nc1nn2cc(F)cnc2c1C(=O)Nc1cncc(F)c1N1CCC(CN2CCCC2=O)CC1` [I-N-213, 2-amino-6-fluoro-N-(5-fluoro-4-(4-((2-oxopyrrolidin-1-yl)methyl)piperidin-1-yl)pyridin-3-yl)pyrazolo[1,5-a]pyrimidine-3-carboxamide] was 0.01 to 1 µM; that for `Nc1nn2cc(F)cnc2c1C(=O)Nc1cnccc1N1CCN2CCOC[C@@H]2C1` [I-N-115, (S)-2-amino-6-fluoro-N-(4-(hexahydropyrazino[2,1-c][1,4]oxazin-8(1H)-yl)pyridin-3-yl)pyrazolo[1,5-a]pyrimidine-3-carboxamide] was 0.01 to 1 µM.

As for `Nc1nn2cc(Cl)cnc2c1C(=O)Nc1cnccc1N1CCC(N2CC[C@@H](F)C2)CC1` [I-N-98, (R)-2-amino-6-chloro-N-(4-(4-(3-fluoropyrrolidin-1-yl)piperidin-1-yl)pyridin-3-yl)pyrazolo[1,5-a]pyrimidine-3-carboxamide], the Ki was in the range of 0.01 to 1 µM.
